Non-standard residues stand in square brackets, D forms with d. Residues, ends and D or L forms follow the SMILES beside them. *: point of attachment. 1Nal = N[C@@H](Cc1cccc2ccccc12)C(=O)O; Bn = c1ccc(C*)cc1
Tests used:
[1] = target: T1, endothelin receptor A (ETA) (Sus scrofa, UniProt Q29010); test: Assay of affinity for receptor (1): binding activity on ETA receptor, 125I-labeled endothelin-1, porcine heart membrane fraction; design: key: relative specific activity; reference cyclic pentapeptide ETA binding = 1.0; settings: specific activity, taking the binding activity of control cyclo[-D-Glu-Ala-D-aIle-Leu-D-Trp-] on receptor A as 1.0, 25°C, 1 hour
T1 construct: A membrane fraction prepared from the porcine heart; from tissue; host or cells: porcine heart membrane fraction
T1 sequence (Q29010 21-427): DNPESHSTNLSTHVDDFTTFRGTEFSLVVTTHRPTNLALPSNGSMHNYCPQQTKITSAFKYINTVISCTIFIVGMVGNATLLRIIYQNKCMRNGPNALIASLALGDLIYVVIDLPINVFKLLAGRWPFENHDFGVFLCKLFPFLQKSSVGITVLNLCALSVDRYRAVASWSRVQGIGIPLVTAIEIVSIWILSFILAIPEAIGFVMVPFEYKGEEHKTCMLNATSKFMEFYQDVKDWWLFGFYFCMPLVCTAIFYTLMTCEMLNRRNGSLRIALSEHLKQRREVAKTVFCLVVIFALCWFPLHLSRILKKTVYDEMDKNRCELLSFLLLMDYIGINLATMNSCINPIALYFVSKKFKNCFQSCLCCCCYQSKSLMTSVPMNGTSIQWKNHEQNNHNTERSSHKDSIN
Method in brief: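 Porcine heart membranes (0.15 mg/ml) incubated with 125I-endothelin-1 and test peptide for 1 h at 25°C, then centrifuged; pellet-bound radioactivity counted by gamma counter. Values given as specific activity relative to reference cyclo[-D-Glu-Ala-D-aIle-Leu-D-Trp-], set at 1.0.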

[2] = tested on: ETB; test: ETB radio receptor assay *2, 125I-endothelin-1, guinea pig kidney crude membrane fraction; format: binding, Guinea pigs; settings: relative activity, 37 °C, 90 minutes
Method in brief: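 Radioligand binding used crude guinea pig kidney membranes (2.1 µg protein) with 740 Bq 125I-endothelin-1. Incubation was 90 min at 37 °C in 50 mM Tris-HCl pH 7.4, 0.1 mM PMSF, 1 mM EDTA, 0.2% BSA. Bound radioactivity was collected by GF/B filtration and measured by gamma counting.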

CC(C)C[C@@H]1NC(=O)[C@@H](CC(C)C)NC(=O)[C@H](CC(=O)O)NC(=O)[C@H](Cc2c[nH]c3ccccc23)NC(=O)[C@@H](CC(=O)O)NC(=O)[C@@H](Cc2c[nH]c3ccccc23)NC1=O [Example 8, cyclo[-D-Asp-Trp-Asp-D-Leu-Leu-D-Trp-]] (cyclo(D[dL]L[dW][dD]W))
Binding Activity on ET Receptor (R. act.) ETA [1]: 76
Binding Activity on ET Receptor (R. act.) ETB*2 [2]: 100

CC(C)C[C@@H]1NC(=O)[C@@H](CC(C)C)NC(=O)[C@H](CC(=O)O)NC(=O)[C@H](Cc2cccc3ccccc23)NC(=O)[C@@H](CC(=O)O)NC(=O)[C@@H](Cc2c[nH]c3ccccc23)NC1=O [Example 23, Cyclo[-D-Asp-Nal(1)-Asp-D-Leu-Leu-D-Trp-]] (cyclo([1Nal]D[dL]L[dW][dD]))
Binding Activity on ET Receptor (R. act.) ETA [1]: 8.3
Binding Activity on ET Receptor (R. act.) ETB*2 [2]: 7.7

CC(C)C[C@@H]1NC(=O)[C@@H](CC(C)C)NC(=O)[C@H](CCC(=O)O)NC(=O)[C@H](Cc2c[nH]c3ccccc23)NC(=O)[C@@H](CC(=O)O)NC(=O)[C@@H](Cc2c[nH]c3ccccc23)NC1=O [Example 34, Cyclo[-D-Asp-Trp-Glu-D-Leu-Leu-D-Trp-]] (cyclo(E[dL]L[dW][dD]W))
Binding Activity on ET Receptor (R. act.) ETA [1]: 20
Binding Activity on ET Receptor (R. act.) ETB*2 [2]: 44

CC(C)C[C@@H]1NC(=O)[C@H](Cc2c[nH]c3ccccc23)NC(=O)[C@@H](CC(=O)O)NC(=O)[C@@H](Cc2c[nH]c3ccccc23)NC(=O)[C@H](CC(C)C)NC(=O)[C@@H](CC(C)C)NC1=O [Example 35, Cyclo[-D-Asp-Trp-Leu-D-Leu-Leu-D-Trp-]] (cyclo(L[dL]L[dW][dD]W))
Binding Activity on ET Receptor (R. act.) ETA [1]: 9.1
Binding Activity on ET Receptor (R. act.) ETB*2 [2]: 24

CC(C)C[C@@H]1NC(=O)[C@@H](CC(C)C)NC(=O)[C@@H]2CCCN2C(=O)[C@H](Cc2c[nH]c3ccccc23)NC(=O)[C@@H](CC(=O)O)NC(=O)[C@@H](Cc2c[nH]c3ccccc23)NC1=O [Example 36, Cyclo[-D-Asp-Trp-Pro-D-Leu-Leu-D-Trp-]] (cyclo(L[dW][dD]WP[dL]))
Binding Activity on ET Receptor (R. act.) ETA [1]: 17
Binding Activity on ET Receptor (R. act.) ETB*2 [2]: 42

CC(C)C[C@@H]1NC(=O)[C@@H](CC(C)C)NC(=O)[C@H](CO)NC(=O)[C@H](Cc2c[nH]c3ccccc23)NC(=O)[C@@H](CC(=O)O)NC(=O)[C@@H](Cc2c[nH]c3ccccc23)NC1=O [Example 37, Cyclo[-D-Asp-Trp-Ser-D-Leu-Leu-D-Trp-]] (cyclo(L[dW][dD]WS[dL]))
Binding Activity on ET Receptor (R. act.) ETA [1]: 24
Binding Activity on ET Receptor (R. act.) ETB*2 [2]: 18

CC(C)C[C@@H]1NC(=O)[C@@H](CC(C)C)NC(=O)[C@H](COCc2ccccc2)NC(=O)[C@H](Cc2c[nH]c3ccccc23)NC(=O)[C@@H](CC(=O)O)NC(=O)[C@@H](Cc2c[nH]c3ccccc23)NC1=O [Example 38, Cyclo[-D-Asp-Trp-Ser(Bzl)-D-Leu-Leu-D-Trp-]] (cyclo(L[dW][dD]WS(Bn)[dL]))
Binding Activity on ET Receptor (R. act.) ETA [1]: 13
Binding Activity on ET Receptor (R. act.) ETB*2 [2]: 170

From EP0552417B1, “Cyclic peptides and use thereof” (priority 1991, dated 1993)
